Data from article doi:10.1101/2025.11.18.689169v1 (bioRxiv, 2025).

Key:
[1] = system: 4T1 mCherry mammary tumors; assay: Live IVIS imaging of tumor accumulation and tumor-to-background ratio; type: in vivo, Balb/c mice; conditions: 50 nmole intravenous, after background cleared over time, day 2
[2] = system: 4T1 mouse breast cancer cells; assay: Cellular uptake, confocal microscopy; type: cell-based; conditions: 4T1 cells, 10 µM ICG labeled PAs, 2 hours, 37°C, confocal microscope
[3] = free ICG; cited from earlier work
[4] = system: 4T1 mCherry mammary tumors; assay: Biodistribution by ICG fluorescence of tissue homogenates; type: in vivo, Balb/c mice; conditions: 50 nmole intravenous, tissue homogenates 2 days after injection

Compound	tumor-to-background ratio (TBR) [1]	cellular uptake / membrane retention [2]	blood circulation half-life [3]	tumor to liver ratio [4]
GGGHGDCDD [C16]	> 10	significant retention in the membrane	–	–
CC1(C)C(/C=C/C=C/C=C/C=C2\N(CCCCS(=O)(=O)O)c3ccc4ccccc4c3C2(C)C)=[N+](CCCCS(=O)(=O)[O-])c2ccc3ccccc3c21 [ICG, indocyanine green]	–	–	< 5 min	–
GGGHGDCDD [C12]	6	–	–	–
GGGHGDCDD [C18]	> 10	significant retention in the membrane	–	~3.3
